Consider two substances from paper PMC5549488, “Synthesis, Characterization, Cytotoxic Activity, and Interactions with CT-DNA and BSA of Cationic Ruthenium(II) Complexes Containing Dppm and Quinoline Carboxylates” (Bioinorganic Chemistry and Applications, 2017).

This assay deals with T1, bovine serum albumin (BSA) (Bos taurus, UniProt P02769).
T1 construct: gene ALB
The assay is described as follows: tryptophan fluorescence quenching (Stern-Volmer, double-log plot), […] K; Kb given. The assay is classed as binding.

T1 sequence (P02769 25-607): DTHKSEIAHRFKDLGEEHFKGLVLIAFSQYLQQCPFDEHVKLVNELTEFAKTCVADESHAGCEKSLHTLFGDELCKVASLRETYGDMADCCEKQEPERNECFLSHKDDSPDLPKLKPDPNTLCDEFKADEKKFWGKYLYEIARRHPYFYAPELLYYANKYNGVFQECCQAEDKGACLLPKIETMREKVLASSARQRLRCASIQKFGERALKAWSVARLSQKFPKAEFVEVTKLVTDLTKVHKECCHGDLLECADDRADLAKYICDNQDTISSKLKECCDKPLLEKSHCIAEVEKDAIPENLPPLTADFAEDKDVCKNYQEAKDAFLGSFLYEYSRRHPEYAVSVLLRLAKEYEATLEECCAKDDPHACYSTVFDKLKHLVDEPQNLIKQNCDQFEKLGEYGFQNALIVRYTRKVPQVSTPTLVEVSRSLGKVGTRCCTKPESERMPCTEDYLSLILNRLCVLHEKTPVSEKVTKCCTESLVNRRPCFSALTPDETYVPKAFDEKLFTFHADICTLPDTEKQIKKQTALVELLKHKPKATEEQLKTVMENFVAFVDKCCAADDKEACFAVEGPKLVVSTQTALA

Regarding cis-[Ru(kynu)(dppm)2]PF6 [compound 2], the “K b / (×10^5)” value is listed as 3.25 (×10^5) (Kb).
Under cis-[Ru(quin)(dppm)2]PF6 [compound 1] stands 4.77 (×10^5) (Kb).
